# ChEMBL document CHEMBL1201862, “PubChem BioAssay data set” (2004)
#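 Cells were grown in 96-well plates and exposed to each compound for 48 hours at five concentrations; endpoints were interpolated linearly between bracketing concentrations, or set to the highest concentration if not reached. Here, GI50 denotes the concentration required for 50% inhibition of growth.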 Active and inactive are the calls of the source. No stated cut-off is given here; in the data, active = GI50 up to about 1.1 µM and inactive = higher.
# Key:
# Test in all cases: NCI anticancer screen, dose series, 48 h
# [1] = system: IGROV-1
# [2] = system: HT-29
# [3] = system: Malme-3M
# [4] = system: SK-MEL-5
# [5] = system: NCI/ADR-RES
# [6] = system: A498
# [7] = system: OVCAR-8
# [8] = system: DU-145
# [9] = system: MDA-MB-435
# [10] = system: SF-295
# [11] = system: UACC-257
# [12] = system: T47D
# [13] = system: ACHN
# [14] = system: SNB-75
# [15] = system: HCT-116
# [16] = system: LOX IMVI
# [17] = system: SN12C
# [18] = system: RPMI-8226
# [19] = system: NCI-H460
# [20] = system: BT-549
Compound,GI50 [1],GI50 [2],GI50 [3],GI50 [4],GI50 [5],GI50 [6],GI50 [7],GI50 [8],GI50 [9],GI50 [10],GI50 [11],GI50 [12],GI50 [13],GI50 [14],GI50 [15],GI50 [16],GI50 [17],GI50 [18],GI50 [19],GI50 [20]
CCN(CCCl)c1ccc(NC(=O)c2cc(C(=O)NCCN(C)C)cc(C(=O)Nc3ccc(N(CC)CCCl)cc3)c2)cc1,6.43 µM (inactive),1.57 µM (inactive),13.6 µM (inactive),12.3 µM (inactive),> 100 µM (inactive),18.5 µM (inactive),3.57 µM (inactive),8.41 µM (inactive),8.32 µM (inactive),9.46 µM (inactive),18.1 µM (inactive),18.7 µM (inactive),5.25 µM (inactive),8.55 µM (inactive),3.03 µM (inactive),1.36 µM (inactive),2.08 µM (inactive),3.46 µM (inactive),0.713 µM (active),
Cn1c(N/N=C/c2ccccc2)nc(-c2ccc3c(c2)OCO3)c(C#N)c1=O,20.9 µM (inactive),> 100 µM (inactive),> 100 µM (inactive),69 µM (inactive),> 100 µM (inactive),95.9 µM (inactive),22.8 µM (inactive),84.5 µM (inactive),73.8 µM (inactive),84.9 µM (inactive),77.1 µM (inactive),> 100 µM (inactive),59.3 µM (inactive),> 100 µM (inactive),> 100 µM (inactive),55.6 µM (inactive),65.2 µM (inactive),47.1 µM (inactive),87.7 µM (inactive),
[N-]=[N+]=NC1C(O)C(CO)OC1n1ccc(N)nc1=O (stereo unspecified),310 µM (inactive),204 µM (inactive),93.8 µM (inactive),> 625 µM (inactive),200 µM (inactive),91.8 µM (inactive),55.5 µM (inactive),212 µM (inactive),44.3 µM (inactive),530 µM (inactive),369 µM (inactive),,33.9 µM (inactive),430 µM (inactive),> 172 µM (inactive),232 µM (inactive),227 µM (inactive),223 µM (inactive),235 µM (inactive),161 µM (inactive)
C[C@@H]1C[C@H]2[C@@H]3CCC4=CC(=O)C=C[C@]4(C)[C@@]3(Cl)[C@@H](Cl)C[C@]2(C)[C@@]1(O)C(=O)COP(=O)(O)O,> 100 µM (inactive),> 100 µM (inactive),> 100 µM (inactive),> 100 µM (inactive),,> 100 µM (inactive),> 100 µM (inactive),> 100 µM (inactive),> 100 µM (inactive),> 100 µM (inactive),> 100 µM (inactive),> 100 µM (inactive),> 100 µM (inactive),> 100 µM (inactive),89.3 µM (inactive),> 100 µM (inactive),17.6 µM (inactive),0.0128 µM (active),,52.1 µM (inactive)
Cn1c2ccccc2c2c3c(c4c5ccccc5n(C)c4c21)C(=O)NC3=O,5.71 µM (inactive),> 32.5 µM (inactive),20.5 µM (inactive),20.7 µM (inactive),> 45.3 µM (inactive),,18.7 µM (inactive),> 100 µM (inactive),> 42.7 µM (inactive),20.4 µM (inactive),> 65.2 µM (inactive),46.1 µM (inactive),,29 µM (inactive),> 64.1 µM (inactive),> 34.8 µM (inactive),> 37.9 µM (inactive),> 51.9 µM (inactive),7.6 µM (inactive),> 42.4 µM (inactive)
C=C(CN1CC2C[C@](C(=O)OC)(c3cc4ccccc4[nH]3)C1C(OC)C2OC)S(=O)(=O)c1ccccc1 (stereo partly specified),2.6 µM (inactive),2.72 µM (inactive),0.43 µM (active),4.44 µM (inactive),4.8 µM (inactive),,3.14 µM (inactive),4 µM (inactive),2.29 µM (inactive),4.65 µM (inactive),2.65 µM (inactive),4.6 µM (inactive),3.01 µM (inactive),2.74 µM (inactive),2.54 µM (inactive),1.85 µM (inactive),3.27 µM (inactive),0.245 µM (active),3.07 µM (inactive),3.85 µM (inactive)
Cc1nc2ccccc2c(=O)n1NC(=O)Cc1ccccc1,> 100 µM (inactive),> 100 µM (inactive),> 100 µM (inactive),> 100 µM (inactive),,> 100 µM (inactive),> 100 µM (inactive),> 100 µM (inactive),> 100 µM (inactive),> 100 µM (inactive),> 100 µM (inactive),> 100 µM (inactive),> 100 µM (inactive),31 µM (inactive),> 100 µM (inactive),> 100 µM (inactive),> 100 µM (inactive),> 100 µM (inactive),> 100 µM (inactive),> 100 µM (inactive)
